Laboratory results: patent publication US10800804B2, “Hybrid galactoside inhibitor of galectins” (GALECTO BIOTECH AB, priority 2014, dated 2020)

What was measured:
Galectin-1 = Galectin-1 (Homo sapiens (Human), UniProt P09382); assay: Fluorescence anisotropy assay, compound as inhibitor of galectin / fluorescein tagged saccharide probe interaction; format: binding
Description: (§1) 100 nM albumin was included as a carrier to prevent protein loss at such low concentration of galectin.

Galectin-3 = Galectin-3 (Homo sapiens (Human), UniProt P17931); assay: Fluorescence anisotropy assay with high-affinity probe (SY), 50 nM galectin-3, 100 nM albumin; format: binding
Description: as §1

galectins = conditions: all galectins; reviewed by Leffler, 2001 and Leffler et al., 2004; cited from earlier work

Chain of Galectin-1 (P09382 whole entry): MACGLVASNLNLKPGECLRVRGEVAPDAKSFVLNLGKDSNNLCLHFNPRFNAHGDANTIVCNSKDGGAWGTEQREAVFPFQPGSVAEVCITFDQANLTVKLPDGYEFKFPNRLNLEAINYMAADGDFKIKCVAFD
Chain of Galectin-3 (P17931 whole entry): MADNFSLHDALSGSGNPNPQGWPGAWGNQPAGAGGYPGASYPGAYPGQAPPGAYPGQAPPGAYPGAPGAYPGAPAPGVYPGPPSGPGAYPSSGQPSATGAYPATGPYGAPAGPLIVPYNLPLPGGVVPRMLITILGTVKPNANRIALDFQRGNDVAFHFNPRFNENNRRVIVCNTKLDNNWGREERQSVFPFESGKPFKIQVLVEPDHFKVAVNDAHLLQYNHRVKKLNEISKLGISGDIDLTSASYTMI

| SMILES | Kd (Galectin-1; Experimental Section 2) [µM] | Kd (Galectin-3; Experimental Section 2) [µM] | Kd (Galectin-1; Experimental Section 1) [µM] | Kd (Galectin-3; Experimental Section 1) [µM] | Kd (galectins) [µM] |
| --- | --- | --- | --- | --- | --- |
| OCC1O[C@@H](SC2O[C@H](CO)C(O)C(n3cc(-c4ccc(F)c(F)c4)nn3)[C@H]2O)C(O)[C@@H](n2cc(-c3ccc(F)c(F)c3)nn2)[C@H]1O (stereo partly drawn) [Example 3a, 3,3′-dideoxy-3,3′-di-[4-(3,4-difluorophenyl)-1H-1,2,3-triazol-1-yl]-1,1′-sulfanediyl-di-β-D-galactopyranoside] | 0.078 | 0.003 | – | – | – |
| OCC1O[C@@H](SC2O[C@H](CO)C(O)C(n3cc(-c4cc(F)c(F)c(F)c4)nn3)[C@H]2O)C(O)[C@@H](n2cc(-c3cc(F)c(F)c(F)c3)nn2)[C@H]1O (stereo partly drawn) [Example 3b, 3,3′-bisdeoxy-3,3′-bis-[4-(3,4,5-trifluorophenyl)-1H-1,2,3-triazol-1-yl]-1,1′-sulfanediyl-di-β-D-galactopyranoside] | 0.079 | 0.001 | – | – | – |
| OCC1O[C@@H](SC2O[C@H](CO)C(O)C(n3cc(-c4cc(F)cc(F)c4)nn3)[C@H]2O)C(O)[C@@H](n2cc(-c3cc(F)cc(F)c3)nn2)[C@H]1O (stereo partly drawn) [Example 3c, 3,3′-bisdeoxy-3,3′-bis-[4-(3,5-difluorophenyl)-1H-1,2,3-triazol-1-yl]-1,1′-sulfanediyldi-β-D-galactopyranoside] | 0.11 | 0.002 | – | – | – |
| O=c1oc2ccc(F)c(F)c2cc1COC1C(O)[C@@H](CO)OC(S[C@@H]2OC(CO)[C@H](O)[C@H](n3cc(-c4cccc(F)c4)nn3)C2O)[C@@H]1O (stereo partly drawn) [Example S8a, 3′-Deoxy-3-O-[(5,6-difluoro-2-oxo-3-chromenyl)methyl]-3′-[4-(3-fluorophenyl)-1H-1,2,3-triazol-1-yl]-1,1′-sulfanediyl-di-β-D-galactopyranoside] | – | – | 0.32 | 0.028 | – |
| O=c1oc2ccc(F)c(F)c2cc1COC1C(O)[C@@H](CO)OC(S[C@@H]2OC(CO)[C@H](O)[C@H](n3cc(-c4cc(F)c(F)c(F)c4)nn3)C2O)[C@@H]1O (stereo partly drawn) [Example S8b, 3′-Deoxy-3-O-[(5,6-difluoro-2-oxo-3-chromenyl)methyl]-3′-[4-(3,4,5-trifluorophenyl)-1H-1,2,3-triazol-1-yl]-1,1′-sulfanediyl-di-β-D-galactopyranoside] | – | – | 0.48 | 0.002 | – |
| CCCCNC(=O)c1cn([C@@H]2C(O)[C@H](SC3O[C@H](CO)C(O)C(OCc4cc5c(F)c(F)ccc5oc4=O)[C@H]3O)OC(CO)[C@@H]2O)nn1 (stereo partly drawn) [Example S8c, 3′-{4-[(Butylamino)carbonyl]-1H-1,2,3-triazol-1-yl}-3′deoxy-3-O-[(5,6-difluoro-2-oxo-3-chromenyl)methyl]-1,1′-sulfanediyl-di-β-D-galactopyranoside] | – | – | 1.2 | 0.072 | – |
| CCCCNC(=O)c1cn(C2C(O)[C@@H](CO)OC(S[C@@H]3OC(CO)[C@H](O)[C@H](n4cc(-c5cc(F)c(F)c(F)c5)nn4)C3O)[C@@H]2O)nn1 (stereo partly drawn) [Example S11, 3-{4-[(Butylamino)carbonyl]-1H-1,2,3-triazol-1-yl}-3,3′-dideoxy-3′-[4-(3,4,5-trifluorophenyl)-1H-1,2,3-triazol-1-yl]-1,1′-sulfanediyl-di-β-D-galactopyranoside] | – | – | 0.077 | 0.001 | – |
| COc1c(F)c(F)c(C(=O)NC2C(O)C(CO)OC(SC3OC(CO)C(O)C(n4cc(-c5cccc(F)c5)nn4)C3O)C2O)c(F)c1F [Example S16, 3,3′-Dideoxy-3′-[4-(3-fluorophenyl)-1H-1,2,3-triazol-1-yl]-3-(4-methoxy-2,3,5,6-tetrafluoro-benzamido)-1′-sulfanediyl-di-β-D-galactopyranoside] | – | – | 0.09 | 0.007 | – |
| O=C(NC1C(O)C(CO)OC(SC2OC(CO)C(O)C(n3cc(-c4cccc(F)c4)nn3)C2O)C1O)c1c2ccccc2cc2ccccc12 [Example S20a, 3-(9-anthracenecarboxamide)-3,3′-Dideoxy-3-[4-(3-fluorophenyl)-1H-1,2,3-triazol-1-yl]-1,1′-sulfanediyl-di-β-D-galactopyranoside] | – | – | 0.38 | 0.064 | – |
| O=C(NC1C(O)C(CO)OC(SC2OC(CO)C(O)C(n3cc(-c4cccc(F)c4)nn3)C2O)C1O)c1ccc2cc3ccccc3cc2c1 [Example S20b, 3-(2-anthracenecarboxamide)-3,3′-Dideoxy-3-[4-(3-fluorophenyl)-1H-1,2,3-triazol-1-yl]-1,1′-sulfanediyl-di-β-D-galactopyranoside] | – | – | 0.49 | 0.14 | – |
| OCC1O[C@@H](SC2O[C@H](CO)C(O)C(n3cc(-c4ccccc4)nn3)[C@H]2O)C(O)[C@@H](n2cc(-c3cc(F)c(F)c(F)c3)nn2)[C@H]1O (stereo partly drawn) [Example S21, 3,3′-Dideoxy-3-[4-(3,4,5-trifluorophenyl)-1H-1,2,3-triazol-1-yl]-3′-[4-phenyl-1H-1,2,3-triazol-1-yl]-1,1′-sulfanediyl-di-β-D-galactopyranoside] | – | – | 0.066 | 0.003 | – |
| OC[C@H]1O[C@@H](O[C@H]2[C@H](O)[C@@H](O)C(O)O[C@@H]2CO)[C@H](O)[C@@H](O)[C@H]1O (some centres unmarked) [lactose] | – | – | – | – | 500 to 1000 |
